Values of other authors as cited in patent US20260258420A1, “COMPOSITIONS AND METHODS FOR THE TREATMENT OF HUMAN PAPILLOMAVIRUS-DRIVEN CANCERS” (priority 2023, published 2026).

How the values were obtained:
CaSki = conditions: cited from earlier work
ME180 = conditions: cited from earlier work
UPCI-SCC-090 = conditions: cited from earlier work
[1] = HNSCC patients who received 100 mg/m^2; read-out: plasma Cmax; cited from earlier work
Vu147T = conditions: cited from earlier work
SiHa = conditions: cited from earlier work
UDSCC2 = conditions: cited from earlier work

For `N.N.[Cl][Pt][Cl]` [cisplatin], the IC50 (CaSki) is listed as 15 µM, the IC50 (ME180) is listed as 12 µM and the IC50 (UPCI-SCC-090) is listed as 11.1 µM. For the same molecule, the Cmax [1] was 11 µM, the IC50 (Vu147T) was 11.2 µM and the IC50 (SiHa) was 28 µM. For the same molecule, the IC50 (UDSCC2) was 18 µM.
